Assay results taken from patent US20130225611A1, “Compositions and Methods for Reducing Cancer Cell Proliferation and Modulating Importin-Beta Function” (THE REGENTS OF THE UNIVERSITY OF CALIFORNIA, priority 2011, published 2013).

Biological target: T1, RanGTP/importin-β interaction (Homo sapiens, UniProt Q14974)
T1 construct: made in house; host or cells: E. coli: BL21 (importin-β), SG13 (Ran)
Test: RanGTP protection assay (RanGAP-stimulated hydrolysis)
Type: biochemical
Conditions: 50 μM importazole
Procedure: For RanGTP protection assays, all steps were performed in buffer containing 50 mM HEPES pH 7.6 with 2.5 mM MgCl2. Loading the Ran with GTP: 40 nM Biotin labeled RCC1 was bound to streptavidin agarose resin for 30 min rotating at 4° C. The Biotin labeled RCC1 was a gift of D. Halpin. The beads were washed with fresh buffer to remove any free RCC1, and 16 μM nucleotide free Ran and 51 μM GTPγP^32 were added and Ran was allowed to load for 30 min at room temperature. The beads were then removed using a spin column, and the remaining supernatant was filtered through a Sephadex G-50 column to remove free GTPγP^32. The loaded Ran was then diluted to 1.6 μM for further use. Performing the assay: All reactions were performed in a final volume of 200 μL at and in buffer containing 50 mM HEPES pH 7.6 with 2.5 mM MgCl2. Importin-β was pre-incubated with either 0.5% DMSO or 50 μM importazole in 0.5% DMSO and 100 nM RanGTPγP^32 at room temperature. 1 μM RanGAP was added to start each reaction, and the reaction was allowed to proceed for 5 min before the reaction was stopped using 1 ml of a solution containing 7% charcoal, 10% ethanol, 0.1 M HCl, and 10 mM KH2PO4. The resulting solution was spun at 10,000 RPM for 2 min in a tabletop centrifuge to pellet the charcoal, and the resulting supernatant was removed and counted for three min per sample in a liquid scintillation counter.

CC(Nc1nc(N2CCCC2)nc2ccccc12)c1ccccc1 (stereo not shown) [importazole, (1-phenyl-ethyl)-(2-pyrrolidin-1-yl-quinazolin-4-yl)-amine]
effect on ability of importin-β to protect RanGTP from RanGAP-stimulated hydrolysis: do not indicate that importazole disrupts the RanGTP/importin-β interaction
